Laboratory results taken from patent US5760240A, “Taxoid synthesis” (The Scripps Research Institute, priority 1995, dated 1998).
pIC50: −log10 of the molar value.

Key:
HT-29 = assay: Cytotoxicity against tumor cell lines: HT-29; format: cell-based; conditions: Homo sapiens; cell line HT-29
Ovcar 3 = assay: Cytotoxicity against tumor cell lines: Ovcar 3; format: cell-based; conditions: Homo sapiens; cell line Ovcar 3
UCLA-P3 = assay: Cytotoxicity against tumor cell lines: UCLA-P3; format: cell-based; conditions: Homo sapiens, UCLA P-3; cell line UCLA-P3
A-549 = assay: Cytotoxicity against tumor cell lines: A-549; format: cell-based; conditions: Homo sapiens, A549; cell line A-549
L-1210 = assay: Cytotoxicity against tumor cell lines: L-1210; format: cell-based; conditions: Mus musculus, L1210; cell line L-1210
SIH-A = assay: Cytotoxicity against tumor cell lines: SIH-A; format: cell-based; conditions: Homo sapiens, SiHa; cell line SIH-A
786-0 = assay: Cytotoxicity against tumor cell lines: 786-0; format: cell-based; conditions: Homo sapiens; cell line 786-0
SK-Mel-28 = assay: Cytotoxicity against tumor cell lines: SK-Mel-28; format: cell-based; conditions: Homo sapiens; cell line SK-Mel-28
SK-NH-SH = assay: Cytotoxicity against tumor cell lines: SK-NH-SH; format: cell-based; conditions: cell line SK-NH-SH
BT-549 = assay: Cytotoxicity against tumor cell lines: BT-549; format: cell-based; conditions: Homo sapiens; cell line BT-549
[1] = tested on: a variety of tumor cell lines; assay: Cytotoxicity against a variety of tumor cell lines (in words); conditions: 15 and 15' under the same conditions

Question: CC(=O)O[C@@H]1C2=C(C)[C@@H](OC(=O)[C@H](O)[C@@H](NC(=O)c3ccccc3)c3ccccc3)C[C@@](O)([C@@H](OC(=O)c3ccccc3)c3ccccc3[C@H]1OC(C)=O)C2(C)C [Compound 15] was tested. Which pIC50 (HT-29) did it give?
Answer: 6.89

Question: And the pIC50 (Ovcar 3)?
Answer: 6.55

Question: And the pIC50 (UCLA-P3)?
Answer: 6.53

Question: What about the pIC50 (A-549) of the same compound?
Answer: 6.19

Question: What about the pIC50 (L-1210) of the same compound?
Answer: 5.95

Question: What about the pIC50 (SIH-A) of the same compound?
Answer: 5.89

Question: What about the pIC50 (786-0) of the same compound?
Answer: 5.71

Question: What about the pIC50 (SK-Mel-28) of the same compound?
Answer: 5.57

Question: What about the pIC50 (SK-NH-SH) of the same compound?
Answer: 5.31

Question: What about the pIC50 (BT-549) of the same compound?
Answer: 5.28

Question: And the “cytotoxicity against a variety of tumor cell lines” value [1]?
Answer: significant cytotoxicity

Question: And the “cytotoxicity against a variety of tumor cell lines” value ([1]; listed as 15')?
Answer: essentially no cytotoxicity

Question: How did the pIC50 (HT-29) turn out when CC(=O)O[C@H]1C(=O)[C@@]2(C)[C@H]([C@H](OC(=O)c3ccccc3)[C@]3(O)C[C@H](OC(=O)[C@H](O)[C@@H](NC(=O)c4ccccc4)c4ccccc4)C(C)=C1C3(C)C)[C@]1(OC(C)=O)CO[C@@H]1C[C@@H]2O [Taxol, reference compound] was run?
Answer: 7.29

Question: And the pIC50 (Ovcar 3)?
Answer: 9.21

Question: What about the pIC50 (UCLA-P3) of the same compound?
Answer: 8.19

Question: What about the pIC50 (L-1210) of the same compound?
Answer: 8.15

Question: What about the pIC50 (786-0) of the same compound?
Answer: 5.66

Question: What about the pIC50 (SK-Mel-28) of the same compound?
Answer: 6.92

Question: And the pIC50 (SK-NH-SH)?
Answer: 9.21

Question: And the pIC50 (BT-549)?
Answer: 9.30
